Experimental data published in US8227463B2, “Amorphous body composed of heterocyclic compound, solid dispersion and pharmaceutical preparation each comprising the same, and process for production of the same” (Zenyaku Kogyo Kabushiki Kaisha, priority 2007, dated 2012).

Tests used:
[1] = Changes in the state of the amorphous body on storage, analysed by powder X-ray diffraction; format: physicochemical; settings: ordinary temperature
Experimental: When a crystal of the test compound obtained by common procedures was analyzed using the powder X-ray diffraction method, several characteristic peaks at diffraction angles 2θ=5 to 14, and especially at 2θ=7 to 10, were observed (FIG. 1). In contrast, when the preparations obtained in Examples 1 and 2 were analyzed using the powder X-ray diffraction (XRD) method, the peaks at diffraction angles characteristic to a crystalline form were not observed, and it was clear that the test compound was in an amorphized state in these preparations (FIG. 2).
In order to investigate the changes in the state of an amorphous body of the test compound, a solid dispersion produced by the spray drying method with a 1:2.5 test compound to HPMC compounding ratio was stored under certain conditions, and changes in the state of the amorphous body of the test compound were analyzed by powder X-ray diffraction similar to Example 3.
The present tablets were filled into a glass jar, sealed and evaluated for the stability of the amorphous body after 6 months of storage at 40° C. (75% RH).

[2] = Blood concentration measurement of the test compound in rats after oral administration of the preparations; format: in vivo, SD male rats
Experimental: 7-week old SD male rats were purchased from Charles River Laboratories Japan (Inc.), preliminarily kept for a week and then used for experiments. Fasting began 16 hours before drug administration, and each of the preparations obtained from Examples 1, 4 and 5, when used, was mixed with distilled water to make a 100 mg/5 ml/kg test compound suspension, which was administered orally. Blood was sequentially collected from the tail vein using heparin-treated glass blood collection tubes from 15 min. to 24 or 30 hours after the administration of these preparations, centrifuged (3,000 rpm, 10 min., 4° C.) to obtain plasma, and the blood concentration of the test compound was evaluated (FIG. 3).

Compound | Stability of the amorphous state over time [1] | Bioavailability / absorbability of amorphized test compound ([2]; compared to the crystallized form) | Bioavailability in rats after grain refinement ([2]; grain refinement using a jet mill, a microfluidizer or an agitation mill)
FC(F)c1nc2ccccc2n1-c1nc(N2CCOCC2)nc(N2CCOCC2)n1 [amorphous form of the test compound, 2-(2-difluoromethylbenzimidazol-1-yl)-4,6-dimorpholino-1,3,5-triazine] | stable for a long period of time at ordinary temperature | extremely high absorbability | 
FC(F)c1nc2ccccc2n1-c1nc(N2CCOCC2)nc(N2CCOCC2)n1 [test compound, 2-(2-difluoromethylbenzimidazol-1-yl)-4,6-dimorpholino-1,3,5-triazine] |  |  | an improvement in the bioavailability was not observed
